Laboratory results reported in patent US20140228299A1, “PROPHYLACTIC AND THERAPEUTIC AGENT FOR NEUROLOGICAL DISEASES USING LIPOPROTEINS AND PROPHYLACTIC AND THERAPEUTIC METHOD FOR NEUROLOGICAL DISEASES” (National University Corporation Tokyo Medical and Dental …, priority 2011, published 2014).

Columns and labels:
[1] = tested on: α2-macroglobulin released from glia cells; assay: α2-macroglobulin released from primary cultured glia cells (immunoblotting of culture supernatant); type: cell-based; conditions: 100 or 1,000 ng/mL; culture supernatant after 24 hours
Protocol: This example was to examine the amount of α2-macroglobulin released from the glia cells. To a culture mixture of the glia cells obtained by the primary culture, human lipoprotein containing apoE (100 or 1,000 ng/mL) was added, followed by collection of a culture supernatant after 24 hours. After the resulting supernatant was subjected to SDS-PAGE, it was detected by the immunoblotting using anti-α2-macroglobulin antibody. As a result, a decrease in the amount of α2-macroglobulin released from the glia cells was observed by the addition of the human lipoprotein containing apoE (FIG. 18).

[2] = tested on: glycogen synthase kinase 3β (GSK3β); assay: GSK3β phosphorylation level in RGC after glutamic acid treatment (Western blotting); type: cell-based, rat; conditions: cells collected 18 hours after treatment with glutamic acid
Protocol: The apoptosis-like cells were computed by the nucleus staining with Hoechst 33342. […] The retinal glia cells were collected in 18 hours after treatment with glutamic acid, followed by Western blotting in which a rabbit anti-phosphorylated GSK3β (p-GSK3β) antibody and a rabbit anti-GSK3β antibody were used.
The immune blotting used in the above example was carried out in a manner as will be described below. Specifically, the lipoprotein obtained in each of the above examples was dissolved in 62.5 mM Tris-HCl (pH 6.8), 10% glycerol, 2% sodium dodecyl sulfate (SDS) and 5% β-mercaptoethanol (a sample buffer), and the resulting mixture was boiled for 5 minutes. The resulting protein was separated by electrophoresis using 0.1% SDS-containing polyacrylamide gel and then transferred to a polyvinylidene difluoride membrane. […]

Row | Substance | amount of α2-macroglobulin released from the glia cells [1] | phosphorylation level of GSK3β [2]
1 | E-LP: reconstituted lipoprotein of 1-palmitoyl-2-oleyl-glycerophosphocoline, cholesterol and recombinant human apolipoprotein E, molar ratio 100:10:1 or 100:0:1 | decrease | –
2 | LP: reconstituted lipoprotein of POPC, cholesterol and recombinant human apolipoprotein E3 | – | recovery
